The test system of one data set is GS4.1 cells. The data set is described as follows: Cytotoxicity evaluation in GS4.1 cells (Cell Titer 96 AQueous One). It is filed as cell-based, human. As to conditions: cellular viability. As for the experimental part: For cytotoxicity evaluation, GS4.1 cells were treated with compounds as described above and cellular viability was monitored using the Cell Titer 96 AQueous One Solution Cell Proliferation Assay (Promega). CC50 values were determined from the % cytotoxicity versus concentration data with Tecan Magellan software as described above.

Data set [1] deals with Huh-7 cells containing HCV Con1 subgenomic replicon (GS4.1 cells). The data set is described as follows: HCV replicon assay (NS5A ELISA). Type of data set: cell-based. The settings on record: GS4.1 cells, 72 hrs, NS5A ELISA, read-out: EC50. As for the experimental part: General Procedure: Huh-7 cells containing HCV Con1 subgenomic replicon (GS4.1 cells) were grown in Dulbecco's Modified Eagle Medium (DMEM) supplemented with 10% fetal bovine serum (FBS), 2 mM L-glutamine, 110 mg/L sodium pyruvate, 1× non-essential amino acids, 100 U/mL penicillin-streptomycin, and 0.5 mg/mL G418 (Invitrogen). For dose-response testing, the cells were seeded in 96-well plates at 7.5×10^3 cells/well in a volume of 50 μL, and incubated at 37° C./5% CO2. Three hours after plating, 50 μL of ten 2-fold serial dilutions of compounds (highest concentration, 75 μM) were added, and cell cultures were incubated at 37° C./5% CO2 in the presence of 0.5% DMSO. Alternatively, compounds were tested at a single concentration of 15 μM. In all cases, Huh-7 cells lacking the HCV replicon served as negative control. The cells were incubated in the presence of compounds for 72 hrs after which they were monitored for expression of the NS5A protein by enzyme-linked immunosorbent assay (ELISA). For this, the plates were then fixed for 1 min with acetone/methanol (1:1, v/v), washed twice with phosphate-buffered saline (PBS), 0.1% Tween 20, blocked for 1 hr at room temperature with TNE buffer containing 10% FBS and then incubated for 2 hr at 37° C. with the anti-NS5A mouse monoclonal antibody A-236 (ViroGen) diluted in the same buffer. After washing three times with PBS, 0.1% Tween 20, the cells were incubated 1 hr at 37° C. with anti-mouse immunoglobulin G-peroxidase conjugate in TNE, 10% FBS. After washing as described above, the reaction was developed with O-phenylenediamine (Zymed). The reaction was stopped after 30 min with 2 N H2SO4, and absorbance was read at 492 nm using Sunrise Tecan spectrophotometer. EC50 values were determined from the % inhibition versus concentration data using a sigmoidal non-linear regression analysis based on four parameters with Tecan Magellan software.
On the technique in general: Replicon systems follow genome replication, usually without infectious particles.

pEC50: −log10 of the molar value. Read-outs that look alike come from different tables or passages of the source.

In general, CC50 refers to the concentration that lowers cell viability or growth by half. A higher CC50 goes with better tolerance by the cells. Usually pEC50 stands for the EC50 on a negative log10 scale, so that one unit is a factor of ten.

Take `COC(=O)N[C@H](C(=O)N1CCC[C@H]1c1ncc(-c2ccc(-c3cn4cc(NC(=O)[C@@H]5CCCN5)nc4s3)cc2)[nH]1)C(C)C` [A150]: in the data set on GS4.1 cells, the CC50 was in the range of 10 to 75 µM. Besides, the pEC50 in data set [1] is 7.00 to 8.00.
On to `CC(C)(C)OC(=O)N1CCCC1c1nc(-c2ccc(-c3cn4cc(-c5ccc(-c6cnc([C@@H]7CCCN7C(=O)OC(C)(C)C)[nH]6)cc5)sc4n3)cc2)c[nH]1` (stereo partly shown) [A157], for which the CC50 in the data set on GS4.1 cells is > 75 µM. For the same compound, the pEC50 in data set [1] (Hepatitis C virus, Huh-7) is 7.00 to 8.00.
In the case of `COC(=O)N[C@@H](C(=O)N1CCC[C@H]1C(=O)Nc1ccc(C#Cc2cn3cc(NC(=O)[C@@H]4CCCN4C(=O)[C@H](NC(=O)OC)c4ccccc4)nc3s2)cc1)c1ccccc1` [A80], the CC50 in the data set with GS4.1 cells is > 75 µM. Besides, the pEC50 in data set [1] is > 9.00.
As for `COC(=O)N[C@H](C(=O)N1CCC[C@H]1c1ncc(-c2ccc(-c3cn4cc(NC(=O)[C@@H]5CCCN5C(=O)[C@H](NC(=O)OCC(C)C)c5ccccc5)nc4s3)cc2)[nH]1)C(C)C` [A57], the CC50 in the data set with GS4.1 cells is > 75 µM. In addition, in data set [1], the negative logarithm of the EC50 (pEC50) is > 9.00.
The compound `COC(=O)N[C@H](C(=O)N1CCC[C@H]1C(=O)Nc1cn2cc(-c3cccc(NC(=O)[C@@H]4CCCN4C(=O)[C@H](NC(=O)OC)c4ccccc4)c3)sc2n1)C(C)C` [A149] displayed a cytotoxic concentration (CC50) in the data set with GS4.1 cells of 10 to 75 µM. Besides, the pEC50 in data set [1] (Hepatitis C virus, Huh-7) is 7.00 to 8.00.
As for `COC(=O)N[C@H](C(=O)N1CCC[C@H]1c1ncc(-c2ccc(-c3cn4cc(-c5cnc(C6CCCN6C(=O)[C@@H](NC(=O)OC(C)(C)C)c6ccccc6)[nH]5)nc4s3)cc2)[nH]1)C(C)C` (stereo partly shown) [A33], in the data set with GS4.1 cells, the CC50 was > 75 µM. For the same compound, in data set [1] (Hepatitis C virus, Huh-7), the pEC50 was > 9.00.
On the same counts, the results for `COC(=O)N[C@H](C(=O)N1CCCC1c1ncc(-c2ccc(-c3csc4c(-c5cnc(C6CCCN6C(=O)[C@H](NC(=O)OC)C(C)C)[nH]5)csc34)cc2)[nH]1)C(C)C` (stereo partly shown) [A77] are > 75 µM and > 9.00.
On the same counts, the results for `COC(=O)N[C@H](C(=O)N1CCCC1c1ncc(-c2ccc(-c3csc4c(-c5cnc(C6CCCN6C(=O)OCc6ccccc6)[nH]5)csc34)cc2)[nH]1)C(C)C` (stereo partly shown) [A49] are > 75 µM and > 9.00.
Take `COC(=O)N[C@H](C(=O)N1CCCC1c1ncc(-c2csc3c(-c4ccc(-c5cnc(C6CCCN6C(=O)[C@@H](NC(=O)OC)C(C)C)[nH]5)cc4)csc23)[nH]1)c1ccccc1` (stereo partly shown) [A78]: the CC50 in the data set on GS4.1 cells is > 75 µM. Moreover, in data set [1] (Hepatitis C virus, Huh-7), the negative-log EC50 (pEC50) was > 9.00.
Compound `COC(=O)N[C@H](C(=O)N1CCC[C@H]1C(=O)Nc1ccc(-c2cn3cc(NC(=O)OC(C)(C)C)nc3s2)cc1)C(C)C` [A34] returned a CC50 with GS4.1 cells of 10 to 75 µM. Moreover, the pEC50 in data set [1] was 8.00 to 9.00.
In the case of `COC(=O)N[C@H](C(=O)N1CCC[C@H]1c1ncc(-c2ccc(-c3cn4cc(NC(=O)[C@@H]5CCCN5C(=O)[C@H](NC(=O)OC(C)(C)C)c5ccccc5)nc4s3)cc2)[nH]1)C(C)C` [Compound A1, (S,S,S,R)-[1-(2-{5-[4-(6-{[1-(2-tert-butoxycarbonylamino-2-phenyl-acetyl)-pyrrolidine-2-carbonyl]-amino}imidazo[2,1-b]thiazol-2-yl)-phenyl]-1H-imidazol-2-yl}pyrrolidine-1-carbonyl)-2-methyl-propyl]-carbamic acid methyl ester], the CC50 with GS4.1 cells was > 75 µM. Besides, the pEC50 in data set [1] (Hepatitis C virus, Huh-7) is > 9.00.
Taken in the same sequence, the figures for `CCOC(=O)N[C@@H](C(=O)N1CCC[C@H]1C(=O)Nc1cn2cc(-c3ccc(-c4cnc([C@@H]5CCCN5C(=O)[C@@H](NC(=O)OC)C(C)C)[nH]4)cc3)sc2n1)c1ccccc1` [Compound A55, (S,S,S,R)-[1-(2-{5-[4-(6-{[1-(2-ethoxycarbonylamino-2-phenylacetyl)-pyrrolidine-2-carbonyl]-amino}imidazo[2,1-b]thiazol-2-yl)-phenyl]-1H-imidazol-2-yl}pyrrolidine-1-carbonyl)-2-methyl-propyl]-carbamic acid methyl ester] were 10 to 75 µM and > 9.00.
Consider `CC(C)(C)OC(=O)N1CCCC1c1ncc(-c2ccc(-c3cn4ccsc4n3)cc2)[nH]1` (stereo not shown) [A167], for which the pEC50 in data set [1] (Hepatitis C virus, Huh-7) was < 7.00.

The record behind these values is patent US9187496B2 (priority 2009, dated 2015).
